≈ marks a conversion by molar mass, not a printed value.
What was measured:
Assay type in all cases: functional
[1] = test system: Mycobacterium tuberculosis; test: Tested for antibacterial activity against Mycobacterium tuberculosis H37Rv kanamycin resistant strain
[2] = test system: Mycobacterium tuberculosis; test: Tested for antibacterial activity against Mycobacterium tuberculosis H37Rv streptomycin resistant strain
[3] = test system: Mycobacterium tuberculosis; test: Tested for antibacterial activity against Mycobacterium tuberculosis H37Rv isonicotinic acid hydrazide-resistant strain

Compound | MIC [1] [µg/mL] | MIC [2] [µg/mL] | MIC [3] [µg/mL]
O=C(O)Cc1ccc(NC(=O)c2ccccc2SSc2ccccc2C(=O)Nc2ccc(CC(=O)O)cc2)cc1 | 100 (≈ 175 µM) | 100 (≈ 175 µM) | 100 (≈ 175 µM)
O=C(Nc1cccc2cccnc12)c1ccccc1SSc1ccccc1C(=O)Nc1cccc2cccnc12 | 50 (≈ 89.5 µM) | 50 (≈ 89.5 µM) | 12.5 (≈ 22.4 µM)
NC[C@H]1O[C@H](O[C@H]2[C@H](O)[C@@H](O[C@H]3O[C@H](CO)[C@@H](O)[C@H](N)[C@H]3O)[C@H](N)C[C@@H]2N)[C@H](O)[C@@H](O)[C@@H]1O [KANAMYCIN] | > 100 | 6.25 (≈ 12.9 µM) | 6.25 (≈ 12.9 µM)
CCCCCCCCCC(=O)OCCCNC(=O)c1ccccc1SSc1ccccc1C(=O)NCCCOC(=O)CCCCCCCCC | 0.39 (≈ 0.535 µM) | 0.78 (≈ 1.07 µM) | 0.39 (≈ 0.535 µM)
O=C(Nc1ccc(Cl)c2ccccc12)c1ccccc1SSc1ccccc1C(=O)Nc1ccc(Cl)c2ccccc12 | 12.5 (≈ 20 µM) | 12.5 (≈ 20 µM) | 12.5 (≈ 20 µM)
O=C1c2ccccc2S(=O)(=O)N1CO | > 100 | 100 (≈ 469 µM) | > 100
CCCCCCCCCCCC(=O)OCCCNC(=O)c1ccccc1SSc1ccccc1C(=O)NCCCOC(=O)CCCCCCCCCCC | 0.78 (≈ 0.993 µM) | 0.78 (≈ 0.993 µM) | 0.78 (≈ 0.993 µM)
O=c1c2ccccc2sn1CO | 12.5 (≈ 69 µM) | 12.5 (≈ 69 µM) | 6.25 (≈ 34.5 µM)
CN[C@@H]1[C@H](O[C@H]2[C@H](O[C@H]3[C@H](O)[C@@H](O)[C@H](N=C(N)N)[C@@H](O)[C@@H]3N=C(N)N)O[C@@H](C)[C@]2(O)C=O)O[C@@H](CO)[C@H](O[C@@H]2O[C@H](CO)[C@@H](O)[C@H](O)[C@@H]2O)[C@H]1O | 3.13 (≈ 4.21 µM) | > 100 | 0.78 (≈ 1.05 µM)
CCOc1ccc2nc(NC(=O)c3ccccc3SSc3ccccc3C(=O)Nc3nc4ccc(OCC)cc4s3)sc2c1 | > 100 | > 100 | > 100
O=C(Nc1cccc2ccc(O)cc12)c1ccccc1SSc1ccccc1C(=O)Nc1cccc2ccc(O)cc12 | 50 (≈ 84.9 µM) | 50 (≈ 84.9 µM) | 12.5 (≈ 21.2 µM)
CCNC(=O)OCCNC(=O)c1ccccc1SSc1ccccc1C(=O)NCCOC(=O)NCC | 25 (≈ 46.8 µM) | 25 (≈ 46.8 µM) | 25 (≈ 46.8 µM)
CCCC(=O)OCCCNC(=O)c1ccccc1SSc1ccccc1C(=O)NCCCOC(=O)CCC | 6.25 (≈ 11.1 µM) | 6.25 (≈ 11.1 µM) | 3.13 (≈ 5.58 µM)
CCCCCCCC(=O)OCCCNC(=O)c1ccccc1SSc1ccccc1C(=O)NCCCOC(=O)CCCCCCC | 0.39 (≈ 0.58 µM) | 0.78 (≈ 1.16 µM) | 0.39 (≈ 0.58 µM)
CCCCCCC(=O)OCCCNC(=O)c1ccccc1SSc1ccccc1C(=O)NCCCOC(=O)CCCCCC | 1.56 (≈ 2.42 µM) | 1.56 (≈ 2.42 µM) | 1.56 (≈ 2.42 µM)
CC[C@@H](CO)NCCN[C@@H](CC)CO [ETHAMBUTOL] | 1.56 (≈ 7.64 µM) | 0.78 (≈ 3.82 µM) | 0.78 (≈ 3.82 µM)
CCC(CO)NC(=O)c1ccccc1SSc1ccccc1C(=O)NC(CC)CO (centres undefined) | 12.5 (≈ 27.9 µM) | 12.5 (≈ 27.9 µM) | 12.5 (≈ 27.9 µM)
CCOC(=O)c1ccc(NC(=O)c2ccccc2SSc2ccccc2C(=O)Nc2ccc(C(=O)OCC)cc2)cc1 | 6.25 (≈ 10.4 µM) | 3.13 (≈ 5.21 µM) | 3.13 (≈ 5.21 µM)
O=C(c1ccccc1SSc1ccccc1C(=O)N1C(=O)c2ccccc2C1=O)N1C(=O)c2ccccc2C1=O | > 100 | > 100 | > 100
CC(=O)OCCCNC(=O)c1ccccc1SSc1ccccc1C(=O)NCCCOC(C)=O | 12.5 (≈ 24.8 µM) | 12.5 (≈ 24.8 µM) | 6.25 (≈ 12.4 µM)
O=C(Nc1c([N+](=O)[O-])ccc2ccccc12)c1ccccc1SSc1ccccc1C(=O)Nc1c([N+](=O)[O-])ccc2ccccc12 | 50 (≈ 77.3 µM) | 50 (≈ 77.3 µM) | 50 (≈ 77.3 µM)
CN1CCCN(C(=O)c2ccccc2SSc2ccccc2C(=O)N2CCCN(C)CC2)CC1 | > 100 | > 100 | > 100
O=C(c1ccccc1SSc1ccccc1C(=O)n1nnc2ccccc21)n1nnc2ccccc21 | > 100 | > 100 | > 100
CCCCC(CC)CNC(=O)c1ccccc1SSc1ccccc1C(=O)NCC(CC)CCCC (centres undefined) | 1.56 (≈ 2.95 µM) | 1.56 (≈ 2.95 µM) | 1.56 (≈ 2.95 µM)

Compound | MIC [1] [µg/mL] | MIC [2] [µg/mL] | MIC [3] [µg/mL]
CCC(O)CNC(=O)c1ccccc1SSc1ccccc1C(=O)NCC(O)CC (centres undefined) | 12.5 (≈ 27.9 µM) | 12.5 (≈ 27.9 µM) | 12.5 (≈ 27.9 µM)
NNC(=O)c1ccncc1 [ISONIAZID] | 0.05 (≈ 0.365 µM) | 0.05 (≈ 0.365 µM) | 100 (≈ 729 µM)
CCOC(=O)CNC(=O)c1ccccc1SSc1ccccc1C(=O)NCC(=O)OCC | 25 (≈ 52.5 µM) | 12.5 (≈ 26.2 µM) | 12.5 (≈ 26.2 µM)
O=C(Nc1ccc2ccccc2c1)c1ccccc1SSc1ccccc1C(=O)Nc1ccc2ccccc2c1 | 1.56 (≈ 2.8 µM) | 1.56 (≈ 2.8 µM) | 1.56 (≈ 2.8 µM)
O=C(NCC(O)c1ccc(O)c(O)c1)c1ccccc1SSc1ccccc1C(=O)NCC(O)c1ccc(O)c(O)c1 (centres undefined) | 100 (≈ 164 µM) | > 100 | 100 (≈ 164 µM)
CC(C)(CO)NC(=O)c1ccccc1SSc1ccccc1C(=O)NC(C)(C)CO | 12.5 (≈ 27.9 µM) | 12.5 (≈ 27.9 µM) | 6.25 (≈ 13.9 µM)
CC(O)CNC(=O)c1ccc(SSc2ccc(C(=O)NCC(C)O)cc2)cc1 (centres undefined) | > 100 | > 100 | > 100
CCCCc1ccc(NC(=O)c2ccccc2SSc2ccccc2C(=O)Nc2ccc(CCCC)cc2)cc1 | 1.56 (≈ 2.74 µM) | 1.56 (≈ 2.74 µM) | 0.78 (≈ 1.37 µM)
O=C(Nc1cc2ccccc2cc1O)c1ccccc1SSc1ccccc1C(=O)Nc1cc2ccccc2cc1O | 6.25 (≈ 10.6 µM) | 12.5 (≈ 21.2 µM) | 12.5 (≈ 21.2 µM)
NC(=O)c1ccccc1SSc1ccccc1C(N)=O | 6.25 (≈ 20.5 µM) | 6.25 (≈ 20.5 µM) | 6.25 (≈ 20.5 µM)
CCn1c2ccccc2c2cc(NC(=O)c3ccccc3SSc3ccccc3C(=O)Nc3ccc4c(c3)c3ccccc3n4CC)ccc21 | 3.13 (≈ 4.53 µM) | 1.56 (≈ 2.26 µM) | 1.56 (≈ 2.26 µM)
CC(O)Cn1sc2ccccc2c1=O (centres undefined) | 12.5 (≈ 59.7 µM) | 12.5 (≈ 59.7 µM) | 12.5 (≈ 59.7 µM)
CO[C@H]1/C=C/O[C@@]2(C)Oc3c(C)c(O)c4c(O)c(c(/C=N/N5CCN(C)CC5)c(O)c4c3C2=O)NC(=O)/C(C)=C\C=C\[C@H](C)[C@H](O)[C@@H](C)[C@@H](O)[C@@H](C)[C@H](OC(C)=O)[C@@H]1C [RIFAMPIN] | 0.05 (≈ 0.0608 µM) | 0.025 (≈ 0.0304 µM) | 0.025 (≈ 0.0304 µM)
CCCCCCCCCCNC(=O)c1ccccc1SSc1ccccc1C(=O)NCCCCCCCCCC | 6.25 (≈ 10.7 µM) | 3.13 (≈ 5.35 µM) | 3.13 (≈ 5.35 µM)
CCCCCCCCCCCC(=O)OCCNC(=O)c1ccccc1SSc1ccccc1C(=O)NCCOC(=O)CCCCCCCCCCC | 3.13 (≈ 4.13 µM) | 3.13 (≈ 4.13 µM) | 3.13 (≈ 4.13 µM)
O=C(Nc1ccc(Br)c2ccccc12)c1ccccc1SSc1ccccc1C(=O)Nc1ccc(Br)c2ccccc12 | 12.5 (≈ 17.5 µM) | 12.5 (≈ 17.5 µM) | 12.5 (≈ 17.5 µM)
O=c1c2ccccc2sn1CCO | 12.5 (≈ 64 µM) | 12.5 (≈ 64 µM) | 12.5 (≈ 64 µM)
O=C(Nc1cccc(C(F)(F)F)c1)c1ccccc1SSc1ccccc1C(=O)Nc1cccc(C(F)(F)F)c1 | 6.25 (≈ 10.5 µM) | 3.13 (≈ 5.28 µM) | 3.13 (≈ 5.28 µM)
O=C(NCc1ccco1)c1ccccc1SSc1ccccc1C(=O)NCc1ccco1 | 12.5 (≈ 26.9 µM) | 12.5 (≈ 26.9 µM) | 12.5 (≈ 26.9 µM)
CCc1cc(CC)cc(NC(=O)c2ccccc2SSc2ccccc2C(=O)Nc2cc(CC)cc(CC)c2)c1 | > 100 | > 100 | > 100
CCCCCC(=O)OCCCNC(=O)c1ccccc1SSc1ccccc1C(=O)NCCCOC(=O)CCCCC | 3.13 (≈ 5.07 µM) | 3.13 (≈ 5.07 µM) | 3.13 (≈ 5.07 µM)
O=C(NCc1cccc2ccccc12)c1ccccc1SSc1ccccc1C(=O)NCc1cccc2ccccc12 | > 100 | > 100 | > 100
CCCCCCCCCCCCCCCCCCCC(=O)OCCCNC(=O)c1ccccc1SSc1ccccc1C(=O)NCCCOC(=O)CCCCCCCCCCCCCCCCCCC | > 100 | > 100 | > 100
O=C(Nc1ccc(S(=O)(=O)Nc2nc3ccccc3s2)cc1)c1ccccc1SSc1ccccc1C(=O)Nc1ccc(S(=O)(=O)Nc2nc3ccccc3s2)cc1 | 50 (≈ 56.7 µM) | 100 (≈ 113 µM) | 100 (≈ 113 µM)

Source: ChEMBL document CHEMBL1122862, “Synthesis and antibacterial activity of 2,2'-dithiobis(benzamide) derivatives against Mycobacterium species” (1985)
